Earlier results as cited in patent publication US7666858B2, “Pharmaceutical composition for treatment of phimosis using topical corticosteroid” (Apsen Farmaceutica S.A., priority 2000, dated 2010).

How the values were obtained:
[1] = Lindhagen 1996

SMILES | solubility in alcohol (alcohol) | solubility in water (water) | success [1] [%]
C[C@H]1C[C@H]2[C@@H]3CCC4=CC(=O)C=C[C@]4(C)[C@@]3(F)[C@@H](O)C[C@]2(C)[C@@]1(O)C(=O)CO [Betamethasone] | partially alcohol-soluble | water-insoluble | 
CCC(=O)O[C@]1(C(=O)CCl)[C@@H](C)C[C@H]2[C@@H]3CCC4=CC(=O)C=C[C@]4(C)[C@@]3(F)[C@@H](O)C[C@@]21C [clobetasol propionate] |  |  | 70
